Results as given in patent publication US20240368150A1 (Hoffmann-La Roche Inc., priority 2021, published 2024).
pEC50: −log10 of the molar value. Where two headings read alike, the source gives them in different places.

Assays:
primary human T-cells [1] = tested on: primary human T-cells
primary human T-cells [2] = experiment: Proliferation assay after 5 days (CellTiter-Glo, CD3 stimulation; PBS counter screen); format: cell-based; details: CD3 stimulation; for Emax / Emax proliferation (% activation): 5 days, normalized to reference compound A1 as stimulator control = 100%, DMSO neutral control; for Emax: read-out: Emax proliferation (% activation); for pEC50: primary human T-cells, CellTiter-Glo after 5 days, EC50 of fitted sigmoidal curve, read-out: Tcell Proliferation CD3 EC50
Experimental: Compounds are then added (see next section) to medium only plates.
Cells are assessed for proliferation 5 days later by measuring […] using CellTiterGlo (Promega).
After 5 days, for detection of ATP which is directly proportional to the number of cells present per well, the CellTiter-Glo® 2.0 Reagent is used. After visual control for toxicity or precipitations of the tested compounds, the plates are equilibrated to room temperature for 45 minutes. CellTiter-Glo® 2.0 Reagent is equilibrated to room temperature as well. After equilibration, an equal amount of CellTiter-Glo reagent is added to the cells (80 μl/well) with an electronic multichannel pipette. Plates are placed on a rocking platform for 15 minutes at room temperature. After incubation, the bottom of the plates is sealed with backing tape. Luminescence is measured with PHERAstar FSX (interval time 0.5 sec, gain 3000, focal height 15 mm) and exported as CSV file for analysis in Genedata screener.
Compounds which activate unstimulated cells (see IL2 measurements) or compounds which negatively affected viability were flagged.

Row | pEC50 (primary human T-cells [1]) | SMILES | Emax (primary human T-cells [2]; Homo sapiens, T-cell, 120 h) | pEC50 (primary human T-cells [2]) | Emax proliferation (% activation) (primary human T-cells [2]) | pEC50 (primary human T-cells [2]; Homo sapiens, T-cell, 120 h)
1 | 6.10 | CC(Nc1nnc(-c2cc3c(cc2F)S(=O)(=O)C[C@H](N)C(=O)N3Cc2ccc(Cl)cc2)o1)C1CC1(F)F (single isomer, unassigned) [Example 495] | 93% | 6.58 |  | 
2 | < 5.00 | CC(Nc1nnc(-c2cc3c(cc2F)S(=O)(=O)C[C@H](N)C(=O)N3Cc2ccc(Cl)cc2)o1)C1CC1(F)F (single isomer, unassigned) [Example 496] |  | 5.94 | 91 % activation | 
3 | 5.24 | N[C@H]1C[S+]([O-])c2cc(F)c(-c3noc(N4CCOCC4)n3)cc2N(Cc2ccc(Cl)cc2)C1=O (single isomer, unassigned; epimer a) [Example 209] | 92% |  |  | 5.39
4 | 5.51 | CC(C)(C)c1nc(-c2cc3c(cc2F)[S+]([O-])C[C@H](N)C(=O)N3Cc2ccc(Cl)cc2)no1 (single isomer, unassigned; epimer a) [Example 340] | 121% | 5.87 |  | 
5 | < 5.00 | CN1CC(c2nc(-c3cc4c(cc3F)[S+]([O-])C[C@H](N)C(=O)N4Cc3ccc(Cl)cc3)no2)CC(F)(F)C1 (single isomer, unassigned; epimer a) [Example 342] |  | 5.31 | 80 % activation | 
6 | < 5.00 | COC(F)(c1nnc(-c2ccc3c(c2)N(Cc2ccc(OC(F)(F)F)cc2)C(=O)[C@@H](N)C[S+]3[O-])o1)C(F)(F)F (single isomer, unassigned; epimer a) [Example 425] |  |  | 81 % activation | 5.73
7 | < 5.00 | N[C@H]1C[S+]([O-])c2ccc(-c3nnc(CC(F)(F)F)o3)cc2N(Cc2ccc(OC(F)(F)F)cc2)C1=O (single isomer, unassigned; epimer a) [Example 427] | 26% | < 5.00 |  | 
8 | 5.14 | N[C@H]1C[S+]([O-])c2cc(F)c(-c3noc(N4CCOC5(CC5)C4)n3)cc2N(Cc2ccc(Cl)cc2)C1=O (single isomer, unassigned; epimer b) [Example 210] |  | 5.81 |  | 
9 | 5.89 | COC(F)(c1nc(-c2cc3c(cc2F)[S+]([O-])C[C@H](N)C(=O)N3Cc2ccc(Cl)cc2)no1)C(F)(F)F (single isomer, unassigned; epimer b) [Example 339] |  | 6.38 | 141 % activation | 
10 | < 5.00 | CC(C)(C)c1nc(-c2cc3c(cc2F)[S+]([O-])C[C@H](N)C(=O)N3Cc2ccc(Cl)cc2)no1 (single isomer, unassigned; epimer b) [Example 341] |  | 5.52 | 105 % activation | 
11 | 5.32 | CN1CC(c2nc(-c3cc4c(cc3F)[S+]([O-])C[C@H](N)C(=O)N4Cc3ccc(Cl)cc3)no2)CC(F)(F)C1 (single isomer, unassigned; epimer b) [Example 343] |  | 5.58 | 97 % activation | 
12 | 5.89 | COC(F)(c1nnc(-c2ccc3c(c2)N(Cc2ccc(OC(F)(F)F)cc2)C(=O)[C@@H](N)C[S+]3[O-])o1)C(F)(F)F (single isomer, unassigned; epimer b) [Example 426] |  | 5.85 | 109 % activation | 
13 | 5.80 | N[C@H]1C[S+]([O-])c2ccc(-c3nnc(CC(F)(F)F)o3)cc2N(Cc2ccc(OC(F)(F)F)cc2)C1=O (single isomer, unassigned; epimer b) [Example 428] |  | 5.48 | 38 % activation | 
14 | 6.00 | CC(C)(C)c1cn(-c2cc3c(cc2F)S(=O)(=O)C[C@H](N)C(=O)N3Cc2ccc(Cl)cc2)nn1 [Example 5, (3R)-3-amino-7-(4-tert-butyltriazol-1-yl)-5-[(4-chlorophenyl)methyl]-8-fluoro-1,1-dioxo-2,3-dihydro-1λ^6,5-benzothiazepin-4-one] | 154% |  |  | 5.67
15 | < 4.70 | CCn1cc(-c2cc3c(cc2F)S(=O)(=O)C[C@H](N)C(=O)N3Cc2ccc(Cl)cc2)nn1 [Example 6, (3R)-3-amino-5-[(4-chlorophenyl)methyl]-7-(1-ethyltriazol-4-yl)-8-fluoro-1,1-dioxo-2,3-dihydro-1λ^6,5-benzothiazepin-4-one] | 39% |  |  | < 4.70
16 | 5.88 | CN1CC[C@H](n2nnc(-c3cc4c(cc3F)S(=O)(=O)C[C@H](N)C(=O)N4Cc3ccc(Cl)cc3)n2)C1 [Example 9, (3R)-3-amino-5-[(4-chlorophenyl)methyl]-8-fluoro-1,1-dioxo-7-[2-[(3S)-1-methylpyrrolidin-3-yl]tetrazol-5-yl]-2,3-dihydro-1λ^6,5-benzothiazepin-4-one] | 63% |  |  | 5.33
17 | 5.51 | CN1CC[C@@H](n2nnc(-c3cc4c(cc3F)S(=O)(=O)C[C@H](N)C(=O)N4Cc3ccc(Cl)cc3)n2)C1 [Example 10, (3R)-3-amino-5-[(4-chlorophenyl)methyl]-8-fluoro-1,1-dioxo-7-[2-[(3R)-1-methylpyrrolidin-3-yl]tetrazol-5-yl]-2,3-dihydro-1λ^6,5-benzothiazepin-4-one] | 78% |  |  | 5.39
18 | 5.89 | CC(=O)N1CCC(n2nnc(-c3cc4c(cc3F)S(=O)(=O)C[C@H](N)C(=O)N4Cc3ccc(Cl)cc3)n2)CC1 [Example 11, (3R)-7-[2-(1-acetyl-4-piperidyl)tetrazol-5-yl]-3-amino-5-[(4-chlorophenyl)methyl]-8-fluoro-1,1-dioxo-2,3-dihydro-1λ^6,5-benzothiazepin-4-one] | 107% |  |  | 5.87
19 | < 5.00 | CC(=O)N1CCCC(n2nnc(-c3cc4c(cc3F)S(=O)(=O)C[C@H](N)C(=O)N4Cc3ccc(Cl)cc3)n2)C1 (stereo partly drawn) [Example 13, (3R)-7-[2-(1-acetyl-3-piperidyl)tetrazol-5-yl]-3-amino-5-[(4-chlorophenyl)methyl]-8-fluoro-1,1-dioxo-2,3-dihydro-1λ^6,5-benzothiazepin-4-one] | 87% |  |  | 5.45
20 | 6.04 | NC(Cn1nnc(-c2cc3c(cc2F)S(=O)(=O)C[C@H](N)C(=O)N3Cc2ccc(Cl)cc2)n1)C(F)(F)F (stereo partly drawn) [Example 14, (3R)-3-amino-7-[2-(2-amino-3,3,3-trifluoro-propyl)tetrazol-5-yl]-5-[(4-chlorophenyl)methyl]-8-fluoro-1,1-dioxo-2,3-dihydro-1λ^6,5-benzothiazepin-4-one] | 131% |  |  | 6.09
21 | 6.08 | COC(=O)N1CCC(n2nnc(-c3cc4c(cc3F)S(=O)(=O)C[C@H](N)C(=O)N4Cc3ccc(Cl)cc3)n2)C1 (stereo partly drawn) [Example 15, methyl 3-[5-[(3R)-3-amino-5-[(4-chlorophenyl)methyl]-8-fluoro-1,1,4-trioxo-2,3-dihydro-1λ^6,5-benzothiazepin-7-yl]tetrazol-2-yl]pyrrolidine-1-carboxylate] | 109% |  |  | 5.61
22 | 5.55 | Cn1nnc(-c2cc3c(cc2F)S(=O)(=O)C[C@H](N)C(=O)N3Cc2ccc(Cl)cc2)n1 [Example 16, (3R)-3-amino-5-[(4-chlorophenyl)methyl]-8-fluoro-7-(2-methyltetrazol-5-yl)-1,1-dioxo-2,3-dihydro-1λ^6,5-benzothiazepin-4-one] | 65% |  |  | 5.44
23 |  | CCc1nc(-c2cc3c(cc2F)S(=O)(=O)C[C@H](N)C(=O)N3Cc2ccc(Cl)cc2)no1 [Example 290, (3R)-3-amino-5-[(4-chlorophenyl)methyl]-7-(5-ethyl-1,2,4-oxadiazol-3-yl)-8-fluoro-1,1-dioxo-2,3-dihydro-1λ^6,5-benzothiazepin-4-one] | 139% |  |  | 6.13
24 |  | CC(C)(NCC(F)(F)F)c1nc(-c2cc3c(cc2F)S(=O)(=O)C[C@H](N)C(=O)N3Cc2ccc(Cl)cc2)no1 [Example 298, (3R)-3-amino-5-[(4-chlorophenyl)methyl]-8-fluoro-7-[5-[1-methyl-1-(2,2,2-trifluoroethylamino)ethyl]-1,2,4-oxadiazol-3-yl]-1,1-dioxo-2,3-dihydro-1λ^6,5-benzothiazepin-4-one] | 162% |  |  | 
25 |  | COC(=O)N1CCC(C)(c2nc(-c3cc4c(cc3F)S(=O)(=O)C[C@H](N)C(=O)N4Cc3ccc(Cl)cc3)no2)CC1 [Example 307, methyl 4-[3-[(3R)-3-amino-5-[(4-chlorophenyl)methyl]-8-fluoro-1,1,4-trioxo-2,3-dihydro-1λ^6,5-benzothiazepin-7-yl]-1,2,4-oxadiazol-5-yl]-4-methyl-piperidine-1-carboxylate] | 143% |  |  | 
26 |  | CC(C)(C)c1ncn(-c2cc3c(cc2F)S(=O)(=O)C[C@H](N)C(=O)N3Cc2ccc(Cl)cc2)n1 [Example 526, (3R)-3-amino-7-(3-tert-butyl-1,2,4-triazol-1-yl)-5-[(4-chlorophenyl)methyl]-8-fluoro-1,1-dioxo-2,3-dihydro-1λ^6,5-benzothiazepin-4-one] | 125% |  |  | 
